Results on 2 compounds are retold here after patent US20030087956A1, “Urea compounds as inhibitors for vla-4” (priority 2000, published 2003).

In the experiment the target is T1, integrin α4β1 (Homo sapiens, UniProt P05556+P13612).
T1 construct: expressed on the MOLT-4 cell membrane; host or cells: MOLT-4 human T-lymphoblastic leukaemia cells
The experiment can be described thus: MOLT-4 cell/Fibronectin adhesion assay. The class given is cell-based. The settings on record: MOLT-4 cells on fibronectin-coated plates, 2 h at 37° C., acid phosphatase readout; read-out: inhibitor of MOLT-4 cell adhesion to fibronectin (concentration at which compound is an inhibitor). The source says: MOLT-4 cells—human T-lymphoblastic leukaemia cells (European Collection of Animal Cell Cultures, Porton Down)
Fibronectin—purified from human plasma by gelatin-sepharose affinity chromatography according to the methods described in E. Nengvall, E. Ruoslahti, Int. J. Cancer, 1977, 20, pages 1-5 and J. Forsyth et al, Methods in Enzymology, 1992, 215, pages 311-316).
1.1.1 MOLT-4 cell/Fibronectin adhesion assay.
The MOLT-4 cell/fibronectin adhesion assay was used to investigate the interaction of the integrin α4-β1expressed on the MOLT-4 cell membrane with fibronectin. Polystyrene 96 well plates were coated overnight at 4° C. with fibronectin, 100 μl of 10 μg/ml in PBS. Non-specific adhesion sites were blocked by adding 100 μl BSA, 20 mg/ml. After incubating for 1 h at room temperature, the solutions were aspirated. […] Adherent cells were quantified by a colorimetric acid phosphatase assay. […] After incubation for 1 h at 37° C., 50 μl sodium hydroxide (1M) was added to each well and the absorbance 405 nm was measured on a microplate spectrophotometer. Compounds which inhibited adhesion gave a lower absorbance reading. […] Percentage inhibition was calculated with respect to total (no inhibitor) and non-specific (no fibronectin) standards on each plate.

T1 sequence (P13612 34-1032): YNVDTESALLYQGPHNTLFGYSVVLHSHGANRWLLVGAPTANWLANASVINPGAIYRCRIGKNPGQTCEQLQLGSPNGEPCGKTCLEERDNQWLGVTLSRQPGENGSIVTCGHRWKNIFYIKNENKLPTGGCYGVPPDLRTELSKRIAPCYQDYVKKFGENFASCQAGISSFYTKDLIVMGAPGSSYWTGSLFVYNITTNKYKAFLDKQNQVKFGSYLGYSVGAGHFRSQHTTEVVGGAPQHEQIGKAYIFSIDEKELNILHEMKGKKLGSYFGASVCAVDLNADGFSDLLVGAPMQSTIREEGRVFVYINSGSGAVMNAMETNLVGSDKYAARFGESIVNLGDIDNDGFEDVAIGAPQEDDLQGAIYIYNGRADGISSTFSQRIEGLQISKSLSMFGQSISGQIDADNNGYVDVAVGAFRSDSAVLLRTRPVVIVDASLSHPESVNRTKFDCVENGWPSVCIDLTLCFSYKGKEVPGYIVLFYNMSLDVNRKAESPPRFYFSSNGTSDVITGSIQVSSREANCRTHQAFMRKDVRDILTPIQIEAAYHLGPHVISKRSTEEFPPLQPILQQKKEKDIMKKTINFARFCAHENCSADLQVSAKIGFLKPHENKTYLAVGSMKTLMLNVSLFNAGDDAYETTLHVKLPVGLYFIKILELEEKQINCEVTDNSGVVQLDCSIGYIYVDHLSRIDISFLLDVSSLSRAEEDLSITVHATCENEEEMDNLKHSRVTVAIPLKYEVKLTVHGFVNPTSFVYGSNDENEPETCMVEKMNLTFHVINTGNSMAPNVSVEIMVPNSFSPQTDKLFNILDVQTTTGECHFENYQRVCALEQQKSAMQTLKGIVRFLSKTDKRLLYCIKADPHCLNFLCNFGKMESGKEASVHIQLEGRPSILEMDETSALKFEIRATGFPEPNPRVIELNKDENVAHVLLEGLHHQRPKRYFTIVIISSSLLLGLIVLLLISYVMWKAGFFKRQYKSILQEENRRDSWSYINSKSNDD
T1 sequence (P05556 21-798): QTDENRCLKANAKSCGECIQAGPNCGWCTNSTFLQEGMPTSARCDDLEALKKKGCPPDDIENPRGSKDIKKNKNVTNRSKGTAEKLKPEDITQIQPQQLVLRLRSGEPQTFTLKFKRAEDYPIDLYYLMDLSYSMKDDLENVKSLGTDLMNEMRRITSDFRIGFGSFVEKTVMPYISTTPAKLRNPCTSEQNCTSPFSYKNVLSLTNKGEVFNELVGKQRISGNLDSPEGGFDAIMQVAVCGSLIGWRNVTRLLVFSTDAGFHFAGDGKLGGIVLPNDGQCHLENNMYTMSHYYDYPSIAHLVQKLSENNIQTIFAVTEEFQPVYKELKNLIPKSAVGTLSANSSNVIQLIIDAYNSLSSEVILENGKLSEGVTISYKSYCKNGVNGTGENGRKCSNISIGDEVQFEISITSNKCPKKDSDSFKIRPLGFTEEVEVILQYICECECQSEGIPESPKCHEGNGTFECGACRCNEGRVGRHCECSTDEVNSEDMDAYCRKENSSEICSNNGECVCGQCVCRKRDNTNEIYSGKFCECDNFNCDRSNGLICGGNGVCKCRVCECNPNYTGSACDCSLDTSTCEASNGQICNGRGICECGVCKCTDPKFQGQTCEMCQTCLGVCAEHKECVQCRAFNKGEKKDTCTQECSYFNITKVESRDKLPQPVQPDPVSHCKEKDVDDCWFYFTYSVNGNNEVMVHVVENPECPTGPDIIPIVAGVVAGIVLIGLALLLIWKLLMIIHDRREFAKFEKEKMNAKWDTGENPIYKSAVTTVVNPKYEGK

On to `Cc1ccccc1NC(=O)Nc1ccc(CC(=O)Nc2ccc(OCCN3CCCCC3)c(OCCCC(=O)O)c2)cc1` [Compound 1], for which the IC50 stood at 87 nM.

As for `Cc1ccccc1NC(=O)Nc1ccc(CC(=O)Nc2ccc(OCCCN3CCCC3)c(OCCCC(=O)O)c2)cc1` [Compound 2], the IC50 was found to be 84 nM.
